In the supplement of paper PMC10307832:

What was measured:
Assay in all cases: relative viability (nuclei count vs DMSO), 5 days (fraction); higher = more cells survive
17-AAG + AZD7762 = compound: C=CCNC1=C2C[C@@H](C)C[C@H](OC)[C@H](O)[C@@H](C)/C=C(\C)[C@H](OC(N)=O)[C@@H](OC)/C=C\C=C(/C)C(=O)NC(=CC1=O)C2=O [17-AAG] + NC(=O)Nc1cc(-c2cccc(F)c2)sc1C(=O)N[C@H]1CCCNC1 [AZD7762] (partner 0.2 µM)
How it was run: (§1)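 A single step with final 0.05% Triton X-100, 1% formaldehyde and 1 ug/ml Hoechst fixed the cells and stained nuclei 5 days after treatment. Lung cancer cell lines in 1536-well plates had been treated by pin tool the day after seeding with one drug alone or a fixed anchor-drug dose plus five library-drug doses (not always all listed) in √10 steps, and nuclei were counted on 4× images. Relative viability is the ratio of nuclei in treated wells to nuclei in vehicle wells, taken as the median of duplicate plates.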

17-AAG + Pemetrexed = compound: C=CCNC1=C2C[C@@H](C)C[C@H](OC)[C@H](O)[C@@H](C)/C=C(\C)[C@H](OC(N)=O)[C@@H](OC)/C=C\C=C(/C)C(=O)NC(=CC1=O)C2=O [17-AAG] + Nc1nc2[nH]cc(CCc3ccc(C(=O)N[C@@H](CCC(=O)O)C(=O)O)cc3)c2c(=O)[nH]1 [Pemetrexed] (partner 0.2 µM)
How it was run: as §1

17-AAG + OSI-027 = compound: C=CCNC1=C2C[C@@H](C)C[C@H](OC)[C@H](O)[C@@H](C)/C=C(\C)[C@H](OC(N)=O)[C@@H](OC)/C=C\C=C(/C)C(=O)NC(=CC1=O)C2=O [17-AAG] + COc1cccc2cc(-c3nc([C@H]4CC[C@H](C(=O)O)CC4)n4ncnc(N)c34)[nH]c12 [OSI-027] (partner 0.5 µM)
How it was run: as §1

17-AAG + Foretinib = compound: C=CCNC1=C2C[C@@H](C)C[C@H](OC)[C@H](O)[C@@H](C)/C=C(\C)[C@H](OC(N)=O)[C@@H](OC)/C=C\C=C(/C)C(=O)NC(=CC1=O)C2=O [17-AAG] + COc1cc2c(Oc3ccc(NC(=O)C4(C(=O)Nc5ccc(F)cc5)CC4)cc3F)ccnc2cc1OCCCN1CCOCC1 [Foretinib] (partner 0.25 µM)
How it was run: as §1

Row | Cell Line | relative viability (17-AAG + AZD7762; first compound 0.00128 µM) | relative viability (17-AAG + AZD7762; first compound 0.004048 µM) | relative viability (17-AAG + AZD7762; first compound 0.0128 µM) | relative viability (17-AAG + AZD7762; first compound 0.04048 µM) | relative viability (17-AAG + AZD7762; first compound 0.128 µM) | relative viability (17-AAG + Pemetrexed; first compound 0.00128 µM) | relative viability (17-AAG + Pemetrexed; first compound 0.004048 µM) | relative viability (17-AAG + Pemetrexed; first compound 0.0128 µM) | relative viability (17-AAG + Pemetrexed; first compound 0.04048 µM) | relative viability (17-AAG + Pemetrexed; first compound 0.128 µM) | relative viability (17-AAG + OSI-027; first compound 0.00128 µM) | relative viability (17-AAG + OSI-027; first compound 0.004048 µM) | relative viability (17-AAG + OSI-027; first compound 0.0128 µM) | relative viability (17-AAG + OSI-027; first compound 0.04048 µM) | relative viability (17-AAG + OSI-027; first compound 0.128 µM) | relative viability (17-AAG + Foretinib; first compound 0.00128 µM) | relative viability (17-AAG + Foretinib; first compound 0.004048 µM) | relative viability (17-AAG + Foretinib; first compound 0.0128 µM) | relative viability (17-AAG + Foretinib; first compound 0.04048 µM) | relative viability (17-AAG + Foretinib; first compound 0.128 µM)
1 | NCI-H1793 | 0.66 | 0.306 | 0.173 | 0.109 | 0.0863 | 0.837 | 0.513 | 0.213 | 0.16 | 0.124 | 0.252 | 0.234 | 0.156 | 0.124 | 0.125 | 0.63 | 0.622 | 0.442 | 0.165 | 0.161
2 | HCC-827 | 0.216 | 0.238 | 0.163 | – | 0.164 | 0.283 | 0.264 | 0.257 | – | 0.218 | 0.826 | 0.785 | 0.728 | – | 0.394 | 1.06 | 0.978 | 1.03 | – | 0.727
3 | HCC-78 | 0.599 | 0.821 | 0.666 | 0.155 | 0.352 | 0.902 | 0.926 | 0.919 | 0.879 | 0.836 | 0.375 | 0.416 | 0.405 | 0.39 | 0.384 | 0.525 | 0.574 | 0.611 | 0.516 | 0.499
4 | NCI-H2085 | 0.983 | 1.02 | 1 | 1 | 0.551 | 0.944 | 0.923 | 0.911 | 0.877 | 0.828 | 0.845 | 0.859 | 0.763 | 0.521 | 0.29 | 0.92 | 0.834 | 1.06 | 0.844 | 0.563
5 | HCC-44 | 1 | 1.02 | 1.03 | 0.973 | 0.398 | 0.639 | 0.619 | 0.649 | 0.694 | 0.352 | 0.54 | 0.429 | 0.229 | 0.141 | 0.116 | – | – | – | – | –
6 | NCI-H2228 | – | – | – | – | – | 0.333 | 0.158 | 0.11 | 0.148 | 0.12 | 0.583 | 0.265 | 0.104 | 0.0876 | 0.0979 | 0.772 | 0.587 | 0.142 | 0.119 | 0.0997
7 | ABC-1 | 0.902 | 0.726 | 0.844 | 0.835 | 0.498 | – | – | – | – | – | 0.393 | 0.493 | 0.56 | 0.508 | 0.458 | 0.9 | 0.882 | 1.08 | 1.05 | 0.432
8 | COR-L23 | – | – | – | – | – | 0.2 | 0.2 | 0.211 | 0.225 | 0.157 | 0.853 | 0.786 | 0.817 | 0.661 | 0.0974 | 0.938 | 0.943 | 0.846 | 0.854 | 0.143
9 | NCI-H727 | 0.6 | 0.491 | 0.56 | 0.298 | 0.305 | – | – | – | – | – | 0.602 | 0.573 | 0.506 | 0.359 | 0.24 | 0.834 | 0.978 | 0.636 | 0.41 | 0.356
10 | NCI-H1650 | – | – | – | – | – | 0.336 | 0.383 | 0.351 | 0.168 | 0.15 | 0.483 | 0.226 | 0.139 | 0.189 | 0.176 | 0.89 | 0.344 | 0.225 | 0.212 | 0.175
11 | EBC-1 | – | – | – | – | – | – | – | – | – | – | – | – | – | – | – | 0.101 | 0.13 | 0.138 | 0.104 | 0.0946
12 | SW 1573 | – | – | – | – | – | 0.819 | 0.93 | 0.164 | 0.11 | 0.0923 | 0.639 | 0.444 | 0.163 | 0.108 | 0.091 | 0.886 | 1.01 | 0.829 | 0.24 | 0.113
13 | NCI-H661 | – | – | – | – | – | 0.883 | 0.926 | 0.861 | 0.367 | 0.31 | 0.713 | 0.672 | 0.636 | 0.261 | 0.21 | 0.945 | 0.989 | 0.809 | 0.567 | 0.286
14 | SK-MES-1 | – | – | – | – | – | 0.951 | 0.781 | 0.284 | 0.171 | 0.153 | 0.597 | 0.426 | 0.127 | 0.136 | 0.134 | 1 | 0.997 | 0.501 | 0.192 | 0.154
15 | NCI-H1792 | 0.494 | 0.302 | 0.0583 | 0.0445 | 0.0494 | 0.782 | 0.378 | 0.113 | 0.0425 | 0.0604 | 0.691 | 0.765 | 0.619 | 0.574 | 0.273 | – | – | – | – | –
16 | UMC-11 | – | – | – | – | – | 0.793 | 0.741 | 0.576 | 0.246 | 0.183 | 0.469 | 0.512 | 0.255 | 0.233 | 0.202 | 1.02 | 1.04 | 0.847 | 0.27 | 0.174
17 | A549 | – | – | – | – | – | – | – | – | – | – | – | – | – | – | – | 0.963 | 0.815 | 0.55 | 0.0245 | 0.0282
18 | NCI-H1703 | 0.114 | 0.156 | 0.113 | 0.109 | 0.134 | – | – | – | – | – | – | – | – | – | – | 0.325 | 0.331 | 0.215 | 0.229 | 0.191
19 | NCI-H1563 | – | – | – | – | – | 0.773 | 0.898 | 0.468 | 0.452 | 0.414 | 0.755 | 0.647 | 0.564 | 0.509 | 0.481 | 1.04 | 0.83 | 0.559 | 0.549 | 0.5
20 | NCI-H520 | – | – | – | – | – | 0.604 | 0.7 | 0.261 | 0.127 | 0.129 | 0.305 | 0.268 | 0.27 | 0.202 | 0.152 | 0.763 | 0.56 | 0.702 | 0.169 | 0.142
21 | NCI-H2009 | – | – | – | – | – | 1.01 | 1.03 | 1.04 | 0.86 | 0.166 | 0.635 | 0.654 | 0.618 | 0.376 | 0.0937 | 1.23 | 1.14 | 1.17 | 0.85 | 0.138
